Several values for one entry are separate records, joined by “and”; a condition that tells them apart may be missing. Identical values can stand only once. Like-named read-outs stand apart in the source and are kept apart here.
B1: MBP: myelin basic protein, a negative control (protein, UniProt P02686 1-304, looked up)
Myelin basic protein: MGNHAGKRELNAEKASTNSETNRGESEKKRNLGELSRTTSEDNEVFGEADANQNNGTSSQDTAVTDSKRTADPKNAWQDAHPADPGSRPHLIRLFSRDAPGREDNTFKDRPSESDELQTIQEDSAATSESLDVMASQKRPSQRHGSKYLATASTMDHARHGFLPRHRDTGILDSIGRFFGGDRGAPKRGSGKDSHHPARTAHYGSLPQKSHGRTQDENPVVHFFKNIVTPRTPPPSQGKGRGLSLSRFSWGAEGQRPGFGYGGRASDYKSAHKGFKGVDAQGTLSKIFKLGGRDSRSGSPMARR

Key:
Type in all cases: cell-based, mouse
[1] = tested on: IFN-γ mRNA in LN cells; assay: IFN-γ mRNA by real-time PCR in LN cells of GA-immunized CD-1, BALB/cByJ, SJL/J mice (Example III); conditions: 6 hours
Procedure: On Day 0, mice were immunized with 250 μg GA (GMA, Mylan Pharmaceuticals, Inc.) and CFA. The GA solution (20 mg/mL) was diluted with Dulbecco's Phosphate-Buffered Saline to 5 mg/mL. The dosing formulation consisted of equal volumes of the diluted GA solution (5 mg/mL) and CFA solution, mixed until well-emulsified. Animals were weighed and allocated to groups. Animals were dosed by injection into four footpads. The injection volume per animal was 0.1 mL (about 10 μL into each front footpad, and 40 μL into each hind footpad).
Immunized animals were euthanized by cervical dislocation on Day 10 post-immunization. Lymph node cells were isolated from animals and treated with Myelin Basic Protein (MBP, a negative control), Concanavalin A (ConA, a positive control) or GA as shown in Table 16. Lymph nodes in the axillary and popliteal regions were removed aseptically in a purifier clean bench. […] The LN were then washed 3 times with −5 mL of RPMI medium, and isolated by pressing the LN with a syringe plunger. […] The cell suspension was centrifuged at about 200×g for 10 minutes at about 4° C. and re-suspended in ice cold enriched DCCM-1 medium. Cells were seeded in 96-well tissue culture plates.
LN cells isolated from GA-immunized animals were stimulated with GA (GMA, Mylan Pharmaceuticals, Inc.) at concentrations as indicated in Tables 16 and 17. A positive control was prepared by treating LN cells with 2.5 μg/mL concavalin A (ConA, a non-specific T cell stimulant). Myelin basic protein (MBP, 10 μg/mL) and enriched DCCM-1 medium served as negative controls. The cells from all groups each were stimulated with the same GA lot. Each reaction was set up in triplicate.
After incubation at about 37° C. in a humidified CO2 incubator for 6 hours, the cells were lysed for total RNA isolation. Total RNA was isolated from treated LN cells using SV 96 Total RNA Isolation System according to the manufacturer's protocol (Promega, Cat. #Z3500). Cells were washed once with Phosphate Buffered Saline (PBS) and lysed in RNA lysis buffer. The lysate was transferred to wells of the SV 96 binding plate. Samples were washed with RNA wash solution and treated with DNase. Total RNA was eluted with nuclease-free water from the binding plate.
After the reverse transcriptase reaction was completed, cDNA samples were used directly for real-time PCR to measure the response biomarker mRNA levels produced by the stimulated cells. […] All probes for target genes contained FAM dye, and probes for the internal control contained VIC®/MGB dye. Samples will be prepared and run in 96-well plates using a Real-Time PCR system (7500, Life Technologies). This system allows direct detection of PCR-product formation by measuring the increase in fluorescent emission continuously during the PCR reaction. A relative quantitation method was used to analyze changes in mouse IL-2, IL-4, IL-5, IL-10, IL-13, IFN-γ and TNF-α expression in GA-treated samples relative to the untreated control (enriched DCCM-1 treated) samples. The Real-Time PCR program was:
The levels of mouse cytokine amplicons (IL-2, IL-4, IL-5, IL-10, IL-13, mIFN-γ and TNF-α) were normalized to internal probe levels (GAPDH) from the same samples. The following equations were used to calculate the relative increase in response to GA stimulation compared to the control sample: ΔCT=CT_target−CT_reference ΔΔCT=−ΔCT_Treated−CT_VC

[2] = tested on: IL-12 (total) secreted by LN cells; assay: IL-12 (total) secretion by GA-stimulated LN cells, MSD 9-plex ELISA (Example II); conditions: for IL-12 (total) secretion response ratio (treated cell medium to control DCCM1 medium): 21 hr
Procedure: Animals at 8 weeks of age were immunized by injection into four footpads using a 1 mL syringe with a 27-G, 1⁄2-inch needle. […] Ten days post-immunization, immunized animals were sacrificed via cervical dislocation. […] The LN cells were isolated by pressing the LN with the plunger end of a sterile syringe. […] Trypan blue exclusion method was used to determine the cell density of viable cells in the suspension. […] Cat. […] LN cells were plated into a 24-well tissue culture plate for drug stimulation. […] Cell debris was removed by centrifugation at ca. 200×g for 10 minutes at 4° C. Cytokines secreted by treated cells were determined on the day of collection by ELISA using mouse TH 1/TH 2 9-Plex Tissue Culture Kit (Meso Scale Discovery; Cat No. […]-2, Lot #: K0032839) which detects Th1 cytokines (IFN-γ, IL-2, IL-12, IL-1β, TNF-α, CXCL1) and Th2 cytokines (IL-4, IL-5 and IL-10). For IFN-γ, culture media also were assayed at 45 hours using mouse IFN-γ Tissue Culture Kit (Meso Scale Discovery; Cat No. […] For the positive control, 0.5 mL of LN cells (5×10^6 cells/well) were treated with 0.5 mL of ConA (5 μg/mL). For the negative control, 0.5 mL of LN cells (5×10^6 cells/well) were treated with 0.5 mL of MBP (20 μg/mL). The LN cells with mock stimulation (enriched DCCM1 medium) were used to monitor the background level of a cytokine. For the cytokine assays, calibration standards or samples were incubated in the MULTI-SPOT or the SINGLE-SPOT plate and each cytokine bound to its corresponding capture antibody. All test samples were run in duplicate. The amount of each cytokine on its distinct spot was quantified using a cytokine-specific detection antibody labeled with MSD SULFO-TAGTM reagent. Electrochemiluminescent signals from immobilized SULFO-TAGTM-labeled complexes on each spot from each well were captured by the MSD SECTOR Imager 6000, which produces a signal directly proportional to the amount of captured cytokine in a test sample. The levels of cytokines in test samples were derived by interpolation from calibration curves with calibration standards of known concentrations using reagents provided with the MSD kits. Kits were used according to the manufacturer's protocols. […] Data are expressed as a response ratio of cytokine concentration in treated cell medium to control DCCM1 medium.

[3] = tested on: mIL-10 mRNA in primary LN cells; assay: mIL-10 mRNA by real-time PCR in stimulated LN cells of immunized (SJL/J×BALB/C)F1 mice (Example I)
Procedure: Animals were immunized on Day 0.
Each mouse received a total injection volume of […] (250 μg GA). Animals were immunized on Day 0. […] Lymph nodes from immunized mice were removed and isolated.
Expression of cytokine mRNA was quantitatively analyzed 4 and 6 hours after using a Real-Time PCR system (7500, Applied Biosystems).

[4] = Group 1C: CD-1, GA-immunized, stimulation 10 μg/mL
[5] = Group 2C: BALB/cByJ, GA-immunized, stimulation 10 μg/mL
[6] = Group 3C: SJL/J, GA-immunized, stimulation 10 μg/mL
[7] = BALB/cByJ, immunized GA Intraplantar
[8] = BALB/cByJ, immunized GA Lower Limb
[9] = BALB/cByJ, immunized Mannitol Intraplantar
[10] = C57BL10J, immunized GA Intraplantar
[11] = C57BL10J, immunized GA Lower Limb
[12] = C57BL10J, immunized Mannitol Intraplantar
[13] = CD-1, immunized GA Intraplantar
[14] = CD-1, immunized Mannitol Intraplantar
[15] = Group 1B (GA + CFA), 4 hours post-stimulation, GA 10, MBP 10, ConA 2.5 μg/mL, reference GAPDH
[16] = Group 1B (GA + CFA), 6 hours post-stimulation, GA 10, MBP 10, ConA 2.5 μg/mL, reference GAPDH
[17] = Group 2B (Mannitol + CFA), 4 hours post-stimulation, GA 10, MBP 10, ConA 2.5 μg/mL, reference GAPDH
[18] = Group 2B (Mannitol + CFA), 6 hours post-stimulation, GA 10, MBP 10, ConA 2.5 μg/mL, reference GAPDH

Molecule	IFN-γ mRNA Expression [1, 4] [fold change vs control]	IFN-γ mRNA Expression [1, 5] [fold change vs control]	IFN-γ mRNA Expression [1, 6] [fold change vs control]	IL-12 (total) secretion response ratio (treated cell medium to control DCCM1 medium) [2, 7]	IL-12 (total) secretion response ratio (treated cell medium to control DCCM1 medium) [2, 8]	IL-12 (total) secretion response ratio (treated cell medium to control DCCM1 medium) [2, 9]	IL-12 (total) secretion response ratio (treated cell medium to control DCCM1 medium) [2, 10]	IL-12 (total) secretion response ratio (treated cell medium to control DCCM1 medium) [2, 11]	IL-12 (total) secretion response ratio (treated cell medium to control DCCM1 medium) [2, 12]	IL-12 (total) secretion response ratio (treated cell medium to control DCCM1 medium) [2, 13]	IL-12 (total) secretion response ratio (treated cell medium to control DCCM1 medium) ([2]; CD-1, immunized GA Lower Limb)	IL-12 (total) secretion response ratio (treated cell medium to control DCCM1 medium) [2, 14]	mIL-10 mRNA [3, 15] [fold change vs control]	mIL-10 mRNA [3, 16] [fold change vs control]	mIL-10 mRNA [3, 17] [fold change vs control]	mIL-10 mRNA [3, 18] [fold change vs control]	further results
L-glutamic acid polymer with L-alanine, L-lysine and L-tyrosine, acetate (salt) [GA]	3.1	2.2	2.2	–	–	–	–	–	–	–	–	–	–	–	–	–	IFN-γ mRNA Expression ([1]; Group 1C: CD-1, GA-immunized, stimulation 0.3 μg/mL): 1.6 fold change vs control; IFN-γ mRNA Expression ([1]; Group 1C: CD-1, GA-immunized, stimulation 1 μg/mL): 2.8 fold change vs control; IFN-γ mRNA Expression ([1]; Group 1C: CD-1, GA-immunized, stimulation 3 μg/mL): 4.3 fold change vs control; IFN-γ mRNA Expression ([1]; Group 2C: BALB/cByJ, GA-immunized, stimulation 0.3 μg/mL): 1.2 fold change vs control; IFN-γ mRNA Expression ([1]; Group 2C: BALB/cByJ, GA-immunized, stimulation 1 μg/mL): 1.7 fold change vs control; IFN-γ mRNA Expression ([1]; Group 2C: BALB/cByJ, GA-immunized, stimulation 3 μg/mL): 2.8 fold change vs control; IFN-γ mRNA Expression ([1]; Group 3C: SJL/J, GA-immunized, stimulation 0.3 μg/mL): 0.9 fold change vs control; IFN-γ mRNA Expression ([1]; Group 3C: SJL/J, GA-immunized, stimulation 1 μg/mL): 1.7 fold change vs control; IFN-γ mRNA Expression ([1]; Group 3C: SJL/J, GA-immunized, stimulation 3 μg/mL): 2.5 fold change vs control; IL-12 secretion, dose response to GA (in words) ([2]; cells from any of the three mouse strains): No dose response; mIL-10 mRNA [3]: 1.7 fold change vs control and 1.4 fold change vs control and 1.2 fold change vs control and 0.9 fold change vs control
Concanavalin A [ConA, reference compound]	–	–	–	1.66	1.10	1.44	1.88	1.01	0.92	1.09	1.91	1.80	2.3	1.2	1.6	3.1	IFN-γ mRNA Expression ([1]; Group 1C: CD-1, GA-immunized, stimulation 2.5 μg/mL): 4.0 fold change vs control; IFN-γ mRNA Expression ([1]; Group 2C: BALB/cByJ, GA-immunized, stimulation 2.5 μg/mL): 1.4 fold change vs control; IFN-γ mRNA Expression ([1]; Group 3C: SJL/J, GA-immunized, stimulation 2.5 μg/mL): 1.4 fold change vs control
B1	0.8	0.2	0.2	1.09	1.04	1.05	1.18	1.19	1.13	1.22	1.18	0.99	1.0	0.6	1.0	0.5	–

Reference: patent US10344330B2, “Glatiramer acetate response biomarker mRNA potency assay” (Mylan Inc., priority 2013, dated 2019)
